Counter-ions that a name gives are not always drawn. Like-named read-outs stand apart in the source and are kept apart here.
Experiments:
[1] = system: Staphylococcus aureus methicillin resistant ATCC 33591; experiment: Mouse bacteraemia model, SC dosing; type: in vivo
Method: Groups of 6 male CD-1 (Crl.) derived mice weighing 24±2 g were used. Mice were inoculated intraperitoneally (IP) with an LD90-100 of Staphylococcus aureus methicillin resistant ATCC 33591 (1.1×10^7 CFU/mouse) in 0.5 mL of BHI broth containing 5% mucin. Example 1 and vancomycin were dissolved in 15% HPbetaCD/4.4% glucose/0.5 mM KH2PO4, pH 5.0 and doses of 1, 3, 5, 10 and 20 mg/Kg were administered subcutaneously (SC) to test animals at 0, 2 and 24 hour(s) after bacteria challenge. The dosing volume was 5 mL/Kg. Mortality was recorded once daily for 7 days (FIG. 1). The ED50 for each compound was determined by nonlinear regression.

[2] = system: Vancomycin resistant enterococci, E. faecalis; experiment: MIC susceptibility testing, vancomycin resistant enterococci (E. faecalis); type: cell-based
Method: (§1) Susceptibility testing with the exception of Streptococcus pneumoniae was performed by two-fold serial dilutions in Mueller Hinton Broth supplemented with 50 μg/mL Ca^2+. Susceptibility testing of S. pneumoniae was performed by two-fold serial dilutions in Brain-Heart-Infusion Broth supplemented with 50 μg/mL Ca^2+.
(§2) Modal values from up to 6 determinations

[3] = system: Vancomycin sensitive enterococci, E. faecalis; experiment: MIC susceptibility testing, vancomycin sensitive enterococci (E. faecalis); type: cell-based
Method: as §1, §2

[4] = system: Methicillin-sensitive Staph. epidermidis; experiment: MIC susceptibility testing, methicillin-sensitive Staph. epidermidis; type: cell-based, S. epidermidis
Method: as §1, §2

Aqueous solubility = type: physicochemical
Description: Solubility as employed herein is used generically to refer to a distribution of a compound of formula (I) in a solvent (for example water, saline or an aqueous isotonic solution such as glucose) such that the formulation/composition resulting therefrom is substantially free of visible aggregates and for example is substantially transparent when viewed by the naked eye. Such a formulation would therefore include a whole range of formats which are suitable for infusion and/or injection such as solutions, suspensions, colloids and the like. […]

MSSA = experiment: MIC susceptibility testing, MSSA; type: cell-based, Staphylococcus aureus
Method: as §1, §2

[5] = system: Methicillin-resistant Staph. epidermidis; experiment: MIC susceptibility testing, methicillin-resistant Staph. epidermidis; type: cell-based, S. epidermidis
Method: as §1, §2

CC[C@H](C)[C@@H]1NC(=O)[C@@H]2NC(=O)[C@H](CC(C)C)NC(=O)[C@H](NC(=O)[C@@H]3CSC[C@@H](N)C(=O)N[C@@H](CO)C(=O)NCC(=O)N[C@@H](Cc4c[nH]c5ccccc45)C(=O)N[C@@H](C(C)C)C(=O)N3)[C@H](C)SC[C@H](NC(=O)[C@H](CCC(=O)O)NC1=O)C(=O)NCC(=O)N[C@H]1C(=O)N[C@@H](CC(C)C)C(=O)N[C@@H](C(C)C)C(=O)N[C@@H](CS[C@H]2C)C(=O)N[C@@H](C)C(=O)N[C@H](C(=O)NCc2cc(Cl)cc(Cl)c2)CS[C@H]1C [Example 1, Deoxyactagardine B (3,5-dichlorobenzylamine) monocarboxamide N-methyl glucamine salt]
survival rate ([1]; 3 mg/Kg): 100% | antimicrobial effect against S. aureus (MRSA) in mice ([1]; 3, 5, 10 and 20 mg/Kg×3, SC): significant antimicrobial effect | increase in survival rate ([1]; 3, 5, 10 and 20 mg/Kg×3, SC): at least 50% | estimated ED50 ([1]; CD-1 mice, SC at 0, 2 and 24 h after challenge, mortality over 7 days, nonlinear regression): 1.07 mg/kg | MIC ([2]; E. faecalis 9758512): 8 µg/mL | MIC ([2]; E. faecalis GRL05031): 2 to 4 µg/mL | MIC ([2]; E. faecalis GRL05032): 8 µg/mL | MIC ([2]; E. faecalis GRL05033): 8 µg/mL | MIC ([2]; E. faecalis GRL05034): 4 µg/mL | MIC ([2]; E. faecalis GRL05035): 8 µg/mL | MIC ([3]; E. faecalis 7757400): <4 µg/mL | MIC ([3]; E. faecalis 7791220): <16 µg/mL | MIC ([3]; E. faecalis GRL05022): <8 µg/mL | MIC ([3]; E. faecalis GRL05023): 4 µg/mL | MIC ([3]; E. faecalis GRL05024): <8 µg/mL | MIC ([3]; E. faecalis GRL05026): 8 µg/mL | MIC ([3]; E. faecalis GRL05027): 4 to 8 µg/mL | MIC ([3]; E. faecalis GRL05029): 4 µg/mL | MIC ([3]; E. faecalis GRL05030): <8 µg/mL | MIC ([4]; S. epidermidis 9AF): 16 µg/mL | MIC ([4]; S. epidermidis C12): 16 µg/mL | MIC ([4]; S. epidermidis C16): 16 µg/mL | MIC ([4]; S. epidermidis GRL05001): 8 µg/mL | MIC ([4]; S. epidermidis GRL05002): 8 µg/mL | MIC ([4]; S. epidermidis GRL05003): 8 µg/mL | MIC ([4]; S. epidermidis GRL05004): 4 to 8 µg/mL | MIC ([4]; S. epidermidis GRL05005): 4 to 8 µg/mL | MIC ([4]; S. epidermidis GRL05006): 4 to 8 µg/mL | MIC ([4]; S. epidermidis GRL05007): <16 µg/mL | MIC ([4]; S. epidermidis GRL05008): 4 to 8 µg/mL | MIC ([4]; S. epidermidis GRL05009): 16 µg/mL | MIC ([4]; S. epidermidis GRL05010): <16 µg/mL | MIC ([4]; S. epidermidis MF87): 4 µg/mL | pH of saturated solution (Aqueous solubility; aqueous saturated solution, listed as N-methyl-D-glucamine salt): 8.43 | Solubility (Aqueous solubility; aqueous, * = calculations made from two determinations, listed as N-methyl-D-glucamine salt): 6.87* mg/mL | Solubility (Aqueous solubility; water, salts of compound 1, read-out: solubility): > 10000 µg/mL | MIC (MSSA; S. aureus 8325-4): 4 µg/mL | MIC (MSSA; S. aureus G12): 4 µg/mL | MIC (MSSA; S. aureus G15): 4 µg/mL | MIC (MSSA; S. aureus G20): 4 µg/mL | MIC (MSSA; S. aureus G22): 4 µg/mL | MIC (MSSA; S. aureus G23): 4 µg/mL | MIC (MSSA; S. aureus G26): 4 µg/mL | MIC (MSSA; S. aureus G28): 4 µg/mL | MIC (MSSA; S. aureus G29): 4 µg/mL | MIC (MSSA; S. aureus G30): 4 µg/mL | MIC (MSSA; S. aureus G31): 4 µg/mL | MIC (MSSA; S. aureus G32): 4 µg/mL | MIC (MSSA; S. aureus G33): 4 µg/mL | MIC (MSSA; S. aureus G35): 4 µg/mL | MIC (MSSA; S. aureus SH1000): 4 to 8 µg/mL | MIC ([5]; S. epidermidis 7753921): 8 to 16 µg/mL | MIC ([5]; S. epidermidis 7755298): 8 µg/mL | MIC ([5]; S. epidermidis 7765349): 4 µg/mL | MIC ([5]; S. epidermidis 7864847): <16 µg/mL | MIC ([5]; S. epidermidis 7865688): 16 µg/mL | MIC ([5]; S. epidermidis GRL05011): 16 µg/mL | MIC ([5]; S. epidermidis GRL05012): 8 µg/mL | MIC ([5]; S. epidermidis GRL05013): 8 to 16 µg/mL | MIC ([5]; S. epidermidis GRL05014): 8 to 16 µg/mL | MIC ([5]; S. epidermidis GRL05015): 8 to 16 µg/mL | MIC ([5]; S. epidermidis GRL05016): 4 to 8 µg/mL | MIC ([5]; S. epidermidis GRL05017): 16 µg/mL | MIC ([5]; S. epidermidis GRL05019): 16 µg/mL | MIC ([5]; S. epidermidis GRL05020): 4 µg/mL
